This note sets out measurements from patent US20260206755A1, “COMPOUNDS AND COMPOSITIONS HAVING KNOCK-DOWN OR BLOOD FEED INHIBITION ACTIVITY AGAINST INSECT PESTS” (priority 2017, published 2026).

Like-named read-outs stand apart in the source and are kept apart here.

For this data set, the system named is Anopheles stephensi. The data set is described as follows: Anopheles stephensi treated well plate contact test: knockdown and mortality. It is filed as in vivo. Here is the method:
Examples Anopheles stephensi (Indian Malaria Mosquito)
The individual wells of twelve (12) well tissue culture plates were treated with 200 μl of an ethanol solution containing a test compound of Table 1 or Table 2 at a defined concentration and repeated with also 200 μl of an ethanol solution containing in addition 2 ppm TFNA-AM. Once the deposits were dry, five non-blood fed adult female Anopheles stephensi (between two to five day old) were added to each well, and sustained with a 10% sucrose solution in a cotton wool plug. Assessment of the knockdown after 1 hour, and mortality after 24 and 48 hours was carried out.
In case of multiple tests, the mean value is reported.

Where [1] appears, read: test compound 0.2 ppm plus 2 ppm TFNA-AM, after 24 hours.
Where [2] appears, read: test compound 0.2 ppm plus 2 ppm TFNA-AM, after 48 hours.
The mark [3] stands for this setting: test compound 0.2 ppm plus 2 ppm TFNA-AM, knockdown after 1 hour.
Where [4] appears, read: test compound 0.2 ppm, without TFNA-AM, after 24 hours.
[5] abbreviates: test compound 0.2 ppm, without TFNA-AM, after 48 hours.
The mark [6] stands for this setting: test compound 0.2 ppm, without TFNA-AM, knockdown after 1 hour.
[7] abbreviates: test compound 2 ppm plus 2 ppm TFNA-AM, after 24 hours.
The mark [8] stands for this setting: test compound 2 ppm plus 2 ppm TFNA-AM, after 48 hours.
Where [9] appears, read: test compound 2 ppm plus 2 ppm TFNA-AM, knockdown after 1 hour.
Where [10] appears, read: test compound 2 ppm, without TFNA-AM, after 24 hours.
The mark [11] stands for this setting: test compound 2 ppm, without TFNA-AM, after 48 hours.
[12] abbreviates: test compound 2 ppm, without TFNA-AM, knockdown after 1 hour.
The mark [13] stands for this setting: test compound 20 ppm plus 2 ppm TFNA-AM, after 24 hours.
The mark [14] stands for this setting: test compound 20 ppm plus 2 ppm TFNA-AM, after 48 hours.
The mark [15] stands for this setting: test compound 20 ppm plus 2 ppm TFNA-AM, knockdown after 1 hour.
Setting [16] is: test compound 20 ppm, without TFNA-AM, after 24 hours.
The mark [17] stands for this setting: test compound 20 ppm, without TFNA-AM, after 48 hours.
The mark [18] stands for this setting: test compound 20 ppm, without TFNA-AM, knockdown after 1 hour.
Setting [19] is: test compound 200 ppm plus 2 ppm TFNA-AM, after 24 hours.
The mark [20] stands for this setting: test compound 200 ppm plus 2 ppm TFNA-AM, after 48 hours.
[21] abbreviates: test compound 200 ppm plus 2 ppm TFNA-AM, knockdown after 1 hour.
Setting [22] is: Anopheles stephensi, test compound 0.2 ppm, without TFNA-AM, after 24 hours, read-out: mortality % 24, without TFNA-AM.
Where [23] appears, read: Anopheles stephensi, test compound 0.2 ppm, without TFNA-AM, after 48 hours, read-out: mortality % 48, without TFNA-AM.
The mark [24] stands for this setting: Anopheles stephensi, test compound 0.2 ppm, without TFNA-AM, knockdown after 1 hour, read-out: Knock Down, without TFNA-AM.
Where [25] appears, read: Anopheles stephensi, test compound 2 ppm, without TFNA-AM, after 24 hours, read-out: mortality % 24, without TFNA-AM.
Where [26] appears, read: Anopheles stephensi, test compound 2 ppm, without TFNA-AM, after 48 hours, read-out: mortality % 48, without TFNA-AM.
Where [27] appears, read: Anopheles stephensi, test compound 2 ppm, without TFNA-AM, knockdown after 1 hour, read-out: Knock Down, without TFNA-AM.
[28] abbreviates: Anopheles stephensi, test compound 20 ppm, without TFNA-AM, after 24 hours, read-out: mortality % 24, without TFNA-AM.
Setting [29] is: Anopheles stephensi, test compound 20 ppm, without TFNA-AM, after 48 hours, read-out: mortality % 48, without TFNA-AM.
Setting [30] is: Anopheles stephensi, test compound 20 ppm, without TFNA-AM, knockdown after 1 hour, read-out: Knock Down, without TFNA-AM.
The mark [31] stands for this setting: test compound 0.02 ppm plus 2 ppm TFNA-AM, after 24 hours.
[32] abbreviates: test compound 0.02 ppm plus 2 ppm TFNA-AM, after 48 hours.
Where [33] appears, read: test compound 0.02 ppm plus 2 ppm TFNA-AM, knockdown after 1 hour.
Setting [34] is: Anopheles stephensi, test compound 200 ppm, without TFNA-AM, after 24 hours, read-out: mortality % 24, without TFNA-AM.
The mark [35] stands for this setting: Anopheles stephensi, test compound 200 ppm, without TFNA-AM, after 48 hours, read-out: mortality % 48, without TFNA-AM.
[36] abbreviates: Anopheles stephensi, test compound 200 ppm, without TFNA-AM, knockdown after 1 hour, adult females, read-out: Knock Down, without TFNA-AM.

For orientation: mortality means the percentage killed.

In the case of `N#Cc1ccc(CC(=NNC(=O)Nc2ccc(OC(F)(F)F)cc2)c2cccc(C(F)(F)F)c2)cc1` (mixture of isomers) [Metaflumizone], the “mortality % 24, with TFNA-AM” value was 40% under setting [1], 100% under setting [7], 100% under setting [13] and 100% under setting [19]. Further, the “mortality % 48, with TFNA-AM” value is on record as 60% under setting [2], 100% under setting [8], 100% under setting [14] and 100% under setting [20]. Also, the “Knock Down, with TFNA-AM” value is recorded as 100% under setting [3], 100% under setting [9], 100% under setting [15] and 100% under setting [21]. The “mortality % 24, without TFNA-AM” value was determined as 0% under setting [4]; 0% under setting [10]; 0% under setting [16]; 0% (test compound 200 ppm, without TFNA-AM, after 24 hours). The “mortality % 48, without TFNA-AM” value under setting [5] is listed as 0%; the “mortality % 48, without TFNA-AM” value under setting [11] is given as 0%; the “mortality % 48, without TFNA-AM” value under setting [17] is recorded as 0%; the “mortality % 48, without TFNA-AM” value (test compound 200 ppm, without TFNA-AM, after 48 hours) worked out at 80%. The “Knock Down, without TFNA-AM” value amounted to 0% under setting [6]; 0% under setting [12]; 0% under setting [18]; 0% (test compound 200 ppm, without TFNA-AM, knockdown after 1 hour, adult females).
In the case of `Cc1c(COC(=O)[C@@H]2[C@H](/C=C(\Cl)C(F)(F)F)C2(C)C)cccc1-c1ccccc1` (racemic) [Bifenthrin], the mortality at 0.02 ppm was 20% (Anopheles stephensi, test compound 0.02 ppm, without TFNA-AM, after 24 hours, read-out: mortality % 24, without TFNA-AM) and 60% (Anopheles stephensi, test compound 0.02 ppm, without TFNA-AM, after 48 hours, read-out: mortality % 48, without TFNA-AM). Moreover, the pest or weed control at 0.02 ppm (Anopheles stephensi, test compound 0.02 ppm, without TFNA-AM, knockdown after 1 hour, read-out: Knock Down, without TFNA-AM) was found to be 20%. Moreover, the mortality at 0.2 ppm is, setting by setting: under setting [22], 100%; under setting [23], 100%. Besides, the pest or weed control at 0.2 ppm under setting [24] was 20%. Besides, the mortality at 2 ppm runs as follows: under setting [25], 100%; under setting [26], 100%. Moreover, the pest or weed control at 2 ppm under setting [27] stood at 100%. The mortality at 20 ppm under setting [28] was 100% and the mortality at 20 ppm under setting [29] was determined as 100%. Moreover, the pest or weed control at 20 ppm under setting [30] worked out at 100%. Also, the “mortality % 24, with TFNA-AM” value runs as follows: under setting [31], 100%; under setting [1], 100%; under setting [7], 100%; under setting [13], 100%. Besides, the “mortality % 48, with TFNA-AM” value by setting is: under setting [32], 100%; under setting [2], 100%; under setting [8], 100%; under setting [14], 100%. Also, the “Knock Down, with TFNA-AM” value is, setting by setting: under setting [33], 100%; under setting [3], 100%; under setting [9], 100%; under setting [15], 100%.
Consider `CC(C)=C[C@@H]1[C@@H](C(=O)O[C@H](C#N)c2cccc(Oc3ccccc3)c2)C1(C)C` (relative stereo) [d-d, trans cyphenothrin], for which the “mortality % 24, with TFNA-AM” value is reported as 60% under setting [31], 60% under setting [1], 100% under setting [7] and 100% under setting [13]. Besides, the “mortality % 48, with TFNA-AM” value runs as follows: under setting [32], 20%; under setting [2], 100%; under setting [8], 100%; under setting [14], 100%. The “Knock Down, with TFNA-AM” value under setting [33] is 100%; the “Knock Down, with TFNA-AM” value under setting [3] was 100%; the “Knock Down, with TFNA-AM” value under setting [9] stood at 100%; the “Knock Down, with TFNA-AM” value under setting [15] turned out to be 100%. Further, the “mortality % 24, without TFNA-AM” value runs as follows: (test compound 0.02 ppm, without TFNA-AM, after 24 hours) 0%; under setting [4], 0%; under setting [10], 0%; under setting [16], 40%. In addition, the “mortality % 48, without TFNA-AM” value was 0% (test compound 0.02 ppm, without TFNA-AM, after 48 hours); 0% under setting [5]; 0% under setting [11]; 60% under setting [17]. Further, the “Knock Down, without TFNA-AM” value is, setting by setting: (test compound 0.02 ppm, without TFNA-AM, knockdown after 1 hour) 0%; under setting [6], 0%; under setting [12], 0%; under setting [18], 0%.
Turning to `Cc1ccc(/N=C/N(C)/C=N/c2ccc(C)cc2C)c(C)c1` [Amitraz], the mortality at 0.2 ppm under setting [22] was 0% and the mortality at 0.2 ppm under setting [23] was 0%. Also, under setting [24], the pest or weed control at 0.2 ppm is 0%. Also, the mortality at 2 ppm came out at 0% under setting [25] and 0% under setting [26]. For the same molecule, the pest or weed control at 2 ppm under setting [27] was determined as 0%. In addition, the mortality at 20 ppm reads like this: under setting [28], 0%; under setting [29], 0%. Also, the pest or weed control at 20 ppm under setting [30] is 0%. For the same molecule, the mortality at 200 ppm is 0% under setting [34] and 0% under setting [35]. Further, the pest or weed control at 200 ppm under setting [36] stood at 0%. The “mortality % 24, with TFNA-AM” value runs as follows: under setting [1], 20%; under setting [7], 20%; under setting [13], 20%; under setting [19], 100%. The “mortality % 48, with TFNA-AM” value is, setting by setting: under setting [2], 0%; under setting [8], 0%; under setting [14], 40%; under setting [20], 100%. Further, the “Knock Down, with TFNA-AM” value under setting [3] was found to be 100%; the “Knock Down, with TFNA-AM” value under setting [9] is listed as 100%; the “Knock Down, with TFNA-AM” value under setting [15] is 100%; the “Knock Down, with TFNA-AM” value under setting [21] is recorded as 100%.
`C/C=C(\C)C(=O)O[C@H]1C[C@@H](OC(C)=O)[C@@]2(C(=O)OC)CO[C@H]3[C@@H](O)[C@@](C)([C@]45O[C@@]4(C)[C@H]4C[C@@H]5O[C@@H]5OC=C[C@@]54O)[C@H]4[C@]1(CO[C@]4(O)C(=O)OC)[C@@H]32` [Azadirachtin]: the mortality at 0.2 ppm by setting is: under setting [22], 0%; under setting [23], 0%. The pest or weed control at 0.2 ppm under setting [24] is 0%. For the same molecule, the mortality at 2 ppm stood at 0% under setting [25] and 0% under setting [26]. Besides, the pest or weed control at 2 ppm under setting [27] was found to be 0%. Further, the mortality at 20 ppm by setting is: under setting [28], 0%; under setting [29], 0%. For the same molecule, the pest or weed control at 20 ppm under setting [30] amounted to 0%. For the same molecule, the mortality at 200 ppm came out at 0% under setting [34] and 0% under setting [35]. Further, the pest or weed control at 200 ppm under setting [36] stood at 0%. Also, the “mortality % 24, with TFNA-AM” value reads like this: under setting [1], 20%; under setting [7], 20%; under setting [13], 60%; under setting [19], 80%. The “mortality % 48, with TFNA-AM” value is, setting by setting: under setting [2], 20%; under setting [8], 20%; under setting [14], 40%; under setting [20], 80%. In addition, the “Knock Down, with TFNA-AM” value reads like this: under setting [3], 100%; under setting [9], 100%; under setting [15], 100%; under setting [21], 100%.
